Reference: ChEMBL document CHEMBL4680155, “One-pot synthesis and molecular docking of some new spiropyranindol-2-one derivatives as immunomodulatory agents and in vitro antimicrobial potential with DNA gyrase inhibitor” (Eur J Med Chem, 2020)
≈ marks a conversion by molar mass, not a printed value. Calls of active or inactive are those of the source. The calls are words filed in the database; no cut-off is given here.

How the values were obtained:
Assay type in all cases: functional
Staphylococcus aureus [1] = test: Antibacterial activity against Staphylococcus aureus ATCC 29213 assessed as diameter of inhibition zone at 0.5 mg/ml incubated for 24 hrs by agar diffusion method; details: for zone of inhibition at 500 µg/mL: read-out: DIZ
Enterococcus faecalis [2] = test: Antibacterial activity against Enterococcus faecalis ATCC 29212 assessed as diameter of inhibition zone at 0.5 mg/ml incubated for 24 hrs by agar diffusion method; details: for zone of inhibition at 500 µg/mL: read-out: DIZ
Candida albicans [3] = test: Antifungal activity against Candida albicans ATCC 10231 assessed as diameter of inhibition zone at 0.5 mg/ml incubated for 24 hrs by agar diffusion method; details: read-out: DIZ
Escherichia coli [4] = test: Antibacterial activity against Escherichia coli ATCC 25922 assessed as diameter of inhibition zone at 0.5 mg/ml incubated for 24 hrs by agar diffusion method; details: for zone of inhibition at 500 µg/mL: read-out: DIZ
Salmonella typhimurium [5] = test: Antibacterial activity against Salmonella typhi ATCC 6539 assessed as reduction in bacterial growth incubated for 1 day by paper disk diffusion method
Candida albicans [6] = test: Fungicidal activity against Candida albicans ATCC 10231 incubated for 24 hrs followed by transferring to freshly prepared broth medium and measured after 24 hrs by broth microdilution assay; details: time 48 hrs
Enterococcus faecalis [7] = test: Antibacterial activity against Enterococcus faecalis ATCC 29212 assessed as reduction in bacterial growth incubated for 1 day by paper disk diffusion method
Salmonella typhimurium [8] = test: Antibacterial activity against Salmonella typhi ATCC 6539 assessed as diameter of inhibition zone at 0.5 mg/ml incubated for 24 hrs by agar diffusion method; details: for zone of inhibition at 500 µg/mL: Salmonella enterica, read-out: DIZ
Aspergillus brasiliensis [9] = test: Fungicidal activity against Aspergillus brasiliensis ATCC 16404 incubated for 72 hrs followed by transferring to freshly prepared broth medium and measured after 24 hrs by broth microdilution assay; details: time 96 hrs
Candida albicans [10] = test: Antifungal activity against Candida albicans ATCC 10231 assessed as reduction in bacterial growth incubated for 1 day by paper disk diffusion method; details: ATCC 10231, 24 h
Aspergillus brasiliensis [11] = test: Antifungal activity against Aspergillus brasiliensis ATCC 16404 assessed as reduction in bacterial growth incubated for 3 days by paper disk diffusion method; details: ATCC 16404, 72 h, time 3 day
Escherichia coli [12] = test: Antibacterial activity against Escherichia coli ATCC 25922 assessed as reduction in bacterial growth incubated for 1 day by paper disk diffusion method
Staphylococcus aureus [13] = test: Antibacterial activity against Staphylococcus aureus ATCC 29213 assessed as reduction in bacterial growth incubated for 1 day by paper disk diffusion method
Aspergillus brasiliensis [14] = test: Antifungal activity against Aspergillus brasiliensis ATCC 16404 assessed as diameter of inhibition zone at 0.5 mg/ml incubated for 72 hrs by agar diffusion method; details: read-out: DIZ
[15] = Salmonella enterica subsp. enterica serovar Typhimurium
[16] = Salmonella enterica, ATCC 6539, 24 h

C[C@@H]1[C@H](O)[C@@H](C)/C=C/C=C/C=C/C=C/C=C/C=C/C=C/[C@H](O[C@@H]2O[C@H](C)[C@@H](O)[C@H](N)[C@@H]2O)C[C@@H]2O[C@](O)(C[C@@H](O)C[C@@H](O)[C@H](O)CC[C@@H](O)C[C@@H](O)CC(=O)O[C@H]1C)C[C@H](O)[C@H]2C(=O)O [AMPHOTERICIN B]
diameter of the inhibition zone (DIZ) (Staphylococcus aureus [1]): inactive | diameter of the inhibition zone (DIZ) (Enterococcus faecalis [2]): inactive | zone of inhibition at 500 µg/mL (Candida albicans [3]): 22 mm | diameter of the inhibition zone (DIZ) (Escherichia coli [4]): inactive | MIC (Salmonella typhimurium [5]; [15]): inactive | MFC (Candida albicans [6]): 34.6 µg/mL (≈ 37.5 µM) | MIC (Enterococcus faecalis [7]): inactive | diameter of the inhibition zone (DIZ) (Salmonella typhimurium [8]; [15]): inactive | MFC (Aspergillus brasiliensis [9]): 65.6 µg/mL (≈ 71 µM) | MIC (Candida albicans [10]): 15.6 µg/mL (≈ 16.9 µM) | MIC (Aspergillus brasiliensis [11]): 31.2 µg/mL (≈ 33.8 µM) | MIC (Escherichia coli [12]): inactive | MIC (Staphylococcus aureus [13]): inactive

CCOC(=O)C1=C(c2ccccc2)OC(N)=C(C#N)C12C(=O)Nc1ccc(S(=O)(=O)N3CCOCC3)cc12 (stereo not given)
zone of inhibition at 500 µg/mL (Staphylococcus aureus [1]): 13 mm | zone of inhibition at 500 µg/mL (Enterococcus faecalis [2]): 19 mm | zone of inhibition at 500 µg/mL (Candida albicans [3]): 16 mm | zone of inhibition at 500 µg/mL (Escherichia coli [4]): 14 mm | MIC (Salmonella typhimurium [5]; [16]): 133 µg/mL (≈ 248 µM) | MIC (Enterococcus faecalis [7]; ATCC 29212, 24 h): 7.81 µg/mL (≈ 14.6 µM) | zone of inhibition at 500 µg/mL (Salmonella typhimurium [8]): 11 mm | MIC (Candida albicans [10]): 62.5 µg/mL (≈ 116 µM) | zone of inhibition at 500 µg/mL (Aspergillus brasiliensis [14]): 12 mm | MIC (Aspergillus brasiliensis [11]): 125 µg/mL (≈ 233 µM) | MIC (Escherichia coli [12]; ATCC 25922, 24 h): 88.3 µg/mL (≈ 165 µM) | MIC (Staphylococcus aureus [13]; ATCC 29213, 24 h): 125 µg/mL (≈ 233 µM)

CCOC(=O)C1=C(C)OC(N)=C(C(=O)OCC)C12C(=O)Nc1ccc(S(=O)(=O)N3CCCCC3)cc12 (stereo not given)
zone of inhibition at 500 µg/mL (Staphylococcus aureus [1]): 13 mm | zone of inhibition at 500 µg/mL (Enterococcus faecalis [2]): 19 mm | zone of inhibition at 500 µg/mL (Candida albicans [3]): 12 mm | zone of inhibition at 500 µg/mL (Escherichia coli [4]): 12 mm | MIC (Salmonella typhimurium [5]; [16]): 88.3 µg/mL (≈ 170 µM) | MIC (Enterococcus faecalis [7]; ATCC 29212, 24 h): 35.5 µg/mL (≈ 68.4 µM) | zone of inhibition at 500 µg/mL (Salmonella typhimurium [8]): 13 mm | MIC (Candida albicans [10]): 88.3 µg/mL (≈ 170 µM) | zone of inhibition at 500 µg/mL (Aspergillus brasiliensis [14]): 12 mm | MIC (Aspergillus brasiliensis [11]): 133 µg/mL (≈ 257 µM) | MIC (Escherichia coli [12]; ATCC 25922, 24 h): 71.1 µg/mL (≈ 137 µM) | MIC (Staphylococcus aureus [13]; ATCC 29213, 24 h): 88.3 µg/mL (≈ 170 µM)

CCOC(=O)C1=C(C)OC(N)=C(C#N)C12C(=O)Nc1ccc(S(=O)(=O)N3CCOCC3)cc12 (stereo not given)
zone of inhibition at 500 µg/mL (Staphylococcus aureus [1]): 16 mm | zone of inhibition at 500 µg/mL (Enterococcus faecalis [2]): 14 mm | zone of inhibition at 500 µg/mL (Candida albicans [3]): 18 mm | zone of inhibition at 500 µg/mL (Escherichia coli [4]): 19 mm | MIC (Salmonella typhimurium [5]; [16]): 133 µg/mL (≈ 281 µM) | MIC (Enterococcus faecalis [7]; ATCC 29212, 24 h): 88.3 µg/mL (≈ 186 µM) | zone of inhibition at 500 µg/mL (Salmonella typhimurium [8]): 15 mm | MIC (Candida albicans [10]): 88.3 µg/mL (≈ 186 µM) | zone of inhibition at 500 µg/mL (Aspergillus brasiliensis [14]): 10 mm | MIC (Aspergillus brasiliensis [11]): 167 µg/mL (≈ 351 µM) | MIC (Escherichia coli [12]; ATCC 25922, 24 h): 31.2 µg/mL (≈ 65.9 µM) | MIC (Staphylococcus aureus [13]; ATCC 29213, 24 h): 133 µg/mL (≈ 281 µM)

CC(=O)C1=C(C)OC(N)=C(C#N)C12C(=O)Nc1ccc(S(=O)(=O)N3CCCCC3)cc12 (stereo not given)
zone of inhibition at 500 µg/mL (Staphylococcus aureus [1]): 8 mm | zone of inhibition at 500 µg/mL (Enterococcus faecalis [2]): 15 mm | zone of inhibition at 500 µg/mL (Candida albicans [3]): 16 mm | zone of inhibition at 500 µg/mL (Escherichia coli [4]): 15 mm | MIC (Salmonella typhimurium [5]; [16]): 88.8 µg/mL (≈ 201 µM) | MIC (Enterococcus faecalis [7]; ATCC 29212, 24 h): 167 µg/mL (≈ 376 µM) | zone of inhibition at 500 µg/mL (Salmonella typhimurium [8]): 15 mm | MIC (Candida albicans [10]): 71.1 µg/mL (≈ 161 µM) | zone of inhibition at 500 µg/mL (Aspergillus brasiliensis [14]): 14 mm | MIC (Aspergillus brasiliensis [11]): 125 µg/mL (≈ 282 µM) | MIC (Escherichia coli [12]; ATCC 25922, 24 h): 62.5 µg/mL (≈ 141 µM) | MIC (Staphylococcus aureus [13]; ATCC 29213, 24 h): 167 µg/mL (≈ 376 µM)

CCOC(=O)C1=C(C)OC(N)=C(C#N)C12C(=O)Nc1ccc(S(=O)(=O)N3CCCCC3)cc12 (stereo not given)
zone of inhibition at 500 µg/mL (Staphylococcus aureus [1]): 17 mm | zone of inhibition at 500 µg/mL (Enterococcus faecalis [2]): 18 mm | zone of inhibition at 500 µg/mL (Candida albicans [3]): 15 mm | zone of inhibition at 500 µg/mL (Escherichia coli [4]): 17 mm | MIC (Salmonella typhimurium [5]; [16]): 125 µg/mL (≈ 265 µM) | MIC (Enterococcus faecalis [7]; ATCC 29212, 24 h): 71.1 µg/mL (≈ 150 µM) | zone of inhibition at 500 µg/mL (Salmonella typhimurium [8]): 13 mm | MIC (Candida albicans [10]): 62.5 µg/mL (≈ 132 µM) | zone of inhibition at 500 µg/mL (Aspergillus brasiliensis [14]): 10 mm | MIC (Aspergillus brasiliensis [11]): 143 µg/mL (≈ 302 µM) | MIC (Escherichia coli [12]; ATCC 25922, 24 h): 35.5 µg/mL (≈ 75.2 µM) | MIC (Staphylococcus aureus [13]; ATCC 29213, 24 h): 83.3 µg/mL (≈ 176 µM)

CCOC(=O)/C(C#N)=C1\C(=O)Nc2ccc(S(=O)(=O)N3CCCCC3)cc21
zone of inhibition at 500 µg/mL (Staphylococcus aureus [1]): 7 mm | zone of inhibition at 500 µg/mL (Enterococcus faecalis [2]): 15 mm | zone of inhibition at 500 µg/mL (Candida albicans [3]): 16 mm | zone of inhibition at 500 µg/mL (Escherichia coli [4]): 14 mm | MIC (Salmonella typhimurium [5]; [16]): 125 µg/mL (≈ 321 µM) | MIC (Enterococcus faecalis [7]; ATCC 29212, 24 h): 133 µg/mL (≈ 342 µM) | zone of inhibition at 500 µg/mL (Salmonella typhimurium [8]): 11 mm | MIC (Candida albicans [10]): 125 µg/mL (≈ 321 µM) | zone of inhibition at 500 µg/mL (Aspergillus brasiliensis [14]): 15 mm | MIC (Aspergillus brasiliensis [11]): 88.3 µg/mL (≈ 227 µM) | MIC (Escherichia coli [12]; ATCC 25922, 24 h): 62.5 µg/mL (≈ 160 µM) | MIC (Staphylococcus aureus [13]; ATCC 29213, 24 h): 167 µg/mL (≈ 428 µM)
